Drawing on US9499550B2 (BRISTOL-MYERS SQUIBB COMPANY, priority 2012, dated 2016), this text covers EC50 for nine molecules.

For assay [1], the system named is HCV genotype 1a (H77 strain) replicon in HUH-7 cells. Nature of the assay: HCV replicon luciferase reporter assay, genotype 1a. As to conditions: Hepatitis C virus, Huh-7, 72 h, HCV genotype 1a replicon luciferase assay, 3 days incubation, range class, read-out: LE_1a (EC50, range). The class given is cell-based. The procedure, abridged: (§1)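 Replicon inhibition for both genotypes was measured as Renilla luciferase signal (EnduRen, 7.5 μM final, 2 h) after 3-day, 37° C exposure of replicon-bearing HUH-7 cells in 4% FCS DMEM, 0.5% DMSO. The 1b construct carries S1179I; the 1a H77 construct carries P1496L and S2204I. Twenty-point, 3-fold dilutions were fitted four-parametrically for EC50, and CC50 was taken from multiplexed Cell Titer-Blue.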
On the technique in general: Replicon systems follow genome replication, usually without infectious particles.

Assay [2] deals with HCV genotype 1b (Con1) replicon in HUH-7 cells. Kind of assay: HCV replicon luciferase reporter assay, genotype 1b. In kind it is cell-based. To be noted: Hepatitis C virus, Huh-7, 72 h, HCV genotype 1b replicon luciferase assay, 3 days incubation, range class, read-out: LE_1b (EC50, range). The procedure, abridged: as §1

In general, EC50 refers to the concentration giving half of the maximal effect. For the molecule `CC[C@@H]1C[C@@H](C)CC/C=C\[C@@H]2C[C@@]2(C(=O)NS(=O)(=O)C2(C)CC2)NC(=O)[C@@H]2C[C@@H](Oc3nc(OC)cc4cc(OC)ccc34)CN2C(=O)[C@H]1NC(=O)OC(C)(C)C(F)(F)F` [Compound 1119, 1,1,1-trifluoro-2-methylpropan-2-yl((2R,6S,7R,9S,13aS,14aR,16aS,Z)-2-((3,6-dimethoxyisoquinolin-1-yl)oxy)-7-ethyl-9-methyl-14a-(((1-methylcyclopropyl)sulfonyl)carbamoyl)-5,16-dioxo-1,2,3,5,6,7,8,9,10,11,13a,14,14a,15,16,16a-hexadecahydrocyclopropa[e]pyrrolo[1,2-a][1,4]diazacyclopentadecin-6-yl)carbamate], the EC50 in assay [1] and in assay [2] was less than 5.46 nM in each case.
`CC[C@@H]1C[C@H](C)CC/C=C\[C@@H]2C[C@@]2(C(=O)NS(=O)(=O)C2(C)CC2)NC(=O)[C@@H]2C[C@@H](Oc3nc(OC)cc4cc(OC)ccc34)CN2C(=O)[C@H]1NC(=O)OC(C)(C)C(F)(F)F` [Compound 1120, 1,1,1-trifluoro-2-methylpropan-2-yl((2R,6S,7R,9R,13aS,14aR,16aS,Z)-2-((3,6-dimethoxyisoquinolin-1-yl)oxy)-7-ethyl-9-methyl-14a-(((1-methylcyclopropyl)sulfonyl)carbamoyl)-5,16-dioxo-1,2,3,5,6,7,8,9,10,11,13a,14,14a,15,16,16a-hexadecahydrocyclopropa[e]pyrrolo[1,2-a][1,4]diazacyclopentadecin-6-yl)carbamate]: the concentration giving a half-maximal response (EC50) in assay [1] and in assay [2] was less than 5.46 nM throughout.
For the molecule `CC[C@@H]1C[C@@H](C)CC/C=C\[C@@H]2C[C@@]2(C(=O)NS(=O)(=O)C2(C)CC2)NC(=O)[C@@H]2C[C@@H](Oc3nc(OC)cc4cc(OC)ccc34)CN2C(=O)[C@H]1NC(=O)OC1(C(F)(F)F)COC1` [Compound 1121, 3-(trifluoromethyl)oxetan-3-yl((2R,6S,7R,9S,13aS,14aR,16aS,Z)-2-((3,6-dimethoxyisoquinolin-1-yl)oxy)-7-ethyl-9-methyl-14a-(((1-methylcyclopropyl)sulfonyl)carbamoyl)-5,16-dioxo-1,2,3,5,6,7,8,9,10,11,13a,14,14a,15,16,16a-hexadecahydrocyclopropa[e]pyrrolo[1,2-a][1,4]diazacyclopentadecin-6-yl)carbamate], the EC50 in assay [1] and in assay [2] was less than 5.46 nM throughout.
Turning to `CC[C@@H]1C[C@H](C)CC/C=C\[C@@H]2C[C@@]2(C(=O)NS(=O)(=O)C2(C)CC2)NC(=O)[C@@H]2C[C@@H](Oc3nc(OC)cc4cc(OC)ccc34)CN2C(=O)[C@H]1NC(=O)OC1(C(F)(F)F)COC1` [Compound 1122, 3-(trifluoromethyl)oxetan-3-yl ((2R,6S,7R,9R,13aS,14aR,16aS,Z)-2-((3,6-dimethoxyisoquinolin-1-yl)oxy)-7-ethyl-9-methyl-14a-(((1-methylcyclopropyl)sulfonyl)carbamoyl)-5,16-dioxo-1,2,3,5,6,7,8,9,10,11,13a,14,14a,15,16,16a-hexadecahydrocyclopropa[e]pyrrolo[1,2-a][1,4]diazacyclopentadecin-6-yl)carbamate], the EC50 in assay [1] and in assay [2] was less than 5.46 nM throughout.
For `CC[C@@H]1C[C@@H](C)CC/C=C\[C@@H]2C[C@@]2(C(=O)NS(=O)(=O)C2(C)CC2)NC(=O)[C@@H]2C[C@@H](Oc3nc(OC)cc4cc(OC)ccc34)CN2C(=O)[C@H]1NC(=O)OC(C)(C)C(C)(F)F` [Compound 1123, 3,3-difluoro-2-methylbutan-2-yl((2R,6S,7R,9S,13aS,14aR,16aS,Z)-2-((3,6-dimethoxyisoquinolin-1-yl)oxy)-7-ethyl-9-methyl-14a-(((1-methylcyclopropyl)sulfonyl)carbamoyl)-5,16-dioxo-1,2,3,5,6,7,8,9,10,11,13a,14,14a,15,16,16a-hexadecahydrocyclopropa[e]pyrrolo[1,2-a][1,4]diazacyclopentadecin-6-yl)carbamate], the EC50 in assay [1] and in assay [2] was less than 5.46 nM throughout.
Consider `CC[C@@H]1C[C@H](C)CC/C=C\[C@@H]2C[C@@]2(C(=O)NS(=O)(=O)C2(C)CC2)NC(=O)[C@@H]2C[C@@H](Oc3nc(OC)cc4cc(OC)ccc34)CN2C(=O)[C@H]1NC(=O)OC(C)(C)C(C)(F)F` [Compound 1124, 3,3-difluoro-2-methylbutan-2-yl((2R,6S,7R,9R,13aS,14aR,16aS,Z)-2-((3,6-dimethoxyisoquinolin-1-yl)oxy)-7-ethyl-9-methyl-14a-(((1-methylcyclopropyl)sulfonyl)carbamoyl)-5,16-dioxo-1,2,3,5,6,7,8,9,10,11,13a,14,14a,15,16,16a-hexadecahydrocyclopropa[e]pyrrolo[1,2-a][1,4]diazacyclopentadecin-6-yl)carbamate], for which the EC50 in assay [1] and in assay [2] was less than 5.46 nM throughout.
In the case of `COc1ccc2c(O[C@@H]3C[C@H]4C(=O)N[C@]5(C(=O)NS(=O)(=O)C6(CF)CC6)C[C@H]5/C=C\CC[C@@H](C)C[C@@H](C)[C@H](NC(=O)OC(C)(C)C)C(=O)N4C3)nc(OC)cc2c1` [Compound 1125, tert-butyl ((2R,6S,7R,9R,13aS,14aR,16aS,Z)-2-((3,6-dimethoxyisoquinolin-1-yl)oxy)-14a-(((1-(fluoromethyl)cyclopropyl)sulfonyl)carbamoyl)-7,9-dimethyl-5,16-dioxo-1,2,3,5,6,7,8,9,10,11,13a,14,14a,15,16,16a-hexadecahydrocyclopropa[e]pyrrolo[1,2-a][1,4]diazacyclopentadecin-6-yl)carbamate], the EC50 in assay [1] and in assay [2] was less than 5.46 nM in each case.
As to `COc1ccc2c(O[C@@H]3C[C@H]4C(=O)N[C@]5(C(=O)NS(=O)(=O)C6(CF)CC6)C[C@H]5/C=C\CC[C@H](C)C[C@@H](C)[C@H](NC(=O)OC(C)(C)C(F)(F)F)C(=O)N4C3)nc(OC)cc2c1` [Compound 1126, 1,1,1-trifluoro-2-methylpropan-2-yl((2R,6S,7R,9S,13aS,14aR,16aS,Z)-2-((3,6-dimethoxyisoquinolin-1-yl)oxy)-14a-(((1-(fluoromethyl)cyclopropyl)sulfonyl)carbamoyl)-7,9-dimethyl-5,16-dioxo-1,2,3,5,6,7,8,9,10,11,13a,14,14a,15,16,16a-hexadecahydrocyclopropa[e]pyrrolo[1,2-a][1,4]diazacyclopentadecin-6-yl)carbamate], the EC50 in assay [1] is 4.82 to 103 nM; in assay [2], less than 5.46 nM.
For `COc1ccc2c(O[C@@H]3C[C@H]4C(=O)N[C@]5(C(=O)NS(=O)(=O)C6(CF)CC6)C[C@H]5/C=C\CC[C@@H](C)C[C@@H](C)[C@H](NC(=O)OC(C)(C)C(F)(F)F)C(=O)N4C3)nc(OC)cc2c1` [Compound 1127, 1,1,1-trifluoro-2-methylpropan-2-yl((2R,6S,7R,9R,13aS,14aR,16aS,Z)-2-((3,6-dimethoxyisoquinolin-1-yl)oxy)-14a-(((1-(fluoromethyl)cyclopropyl)sulfonyl)carbamoyl)-7,9-dimethyl-5,16-dioxo-1,2,3,5,6,7,8,9,10,11,13a,14,14a,15,16,16a-hexadecahydrocyclopropa[e]pyrrolo[1,2-a][1,4]diazacyclopentadecin-6-yl)carbamate], in that order: less than 5.46 nM and less than 5.46 nM.
